Reference: ChEMBL document CHEMBL1909046, “DrugMatrix in vitro pharmacology data”

Tests used:
[1] = molecular target: 5-hydroxytryptamine receptor 1B (Rattus norvegicus, UniProt P28564); format: cell membranes, Wistar, Cerebral cortex, Membrane; note: in other assays of this panel Not Active means under 50% inhibition at 10 µM
[2] = molecular target: Protein phosphatase 3 catalytic subunit alpha (Homo sapiens, UniProt Q08209); set-up: species or system Escherichia coli;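 note: inhibition of calcineurin (PP2B) enzyme activity, measured with DiFMUP as the substrate; in other assays of this panel Not Active means under 50% inhibition at 10 µM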
Vasopressin V1a receptor = Vasopressin V1a receptor (Homo sapiens, UniProt P37288); format: cell membranes, Membrane; settings: hek293; note: in other assays of this panel Not Active means under 50% inhibition at 10 µM
Sequence of Vasopressin V1a receptor (P37288 whole entry): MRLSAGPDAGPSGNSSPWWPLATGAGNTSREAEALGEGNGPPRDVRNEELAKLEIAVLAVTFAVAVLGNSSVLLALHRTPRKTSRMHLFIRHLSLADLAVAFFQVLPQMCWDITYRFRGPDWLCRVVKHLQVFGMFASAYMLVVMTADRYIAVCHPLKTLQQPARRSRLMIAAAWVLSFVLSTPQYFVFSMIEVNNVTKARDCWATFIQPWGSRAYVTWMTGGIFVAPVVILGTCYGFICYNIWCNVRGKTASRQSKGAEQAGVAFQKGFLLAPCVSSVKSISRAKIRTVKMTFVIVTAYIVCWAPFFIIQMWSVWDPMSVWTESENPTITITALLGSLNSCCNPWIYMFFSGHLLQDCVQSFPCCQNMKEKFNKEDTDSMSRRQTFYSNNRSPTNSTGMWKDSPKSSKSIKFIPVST

[3] = molecular target: Mitogen-activated protein kinase 3 (Homo sapiens, UniProt P27361); test: DRUGMATRIX: Protein Serine/Threonine Kinase, ERK1 enzyme inhibition (substrate: Myelin Basic Protein); set-up: species or system Escherichia coli; settings: Not Active = under 50% inhibition at 10 µM
Sequence of Mitogen-activated protein kinase 3 (P27361 whole entry): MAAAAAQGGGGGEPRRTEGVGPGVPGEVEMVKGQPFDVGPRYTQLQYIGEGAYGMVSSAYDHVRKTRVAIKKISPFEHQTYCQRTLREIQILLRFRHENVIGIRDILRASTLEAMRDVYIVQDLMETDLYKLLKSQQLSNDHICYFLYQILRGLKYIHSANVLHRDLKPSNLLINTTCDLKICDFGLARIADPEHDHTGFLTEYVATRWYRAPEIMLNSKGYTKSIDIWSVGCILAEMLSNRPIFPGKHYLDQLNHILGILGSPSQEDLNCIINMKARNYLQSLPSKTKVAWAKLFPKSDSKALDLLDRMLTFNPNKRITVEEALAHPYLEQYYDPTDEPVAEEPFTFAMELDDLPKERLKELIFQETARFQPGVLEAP

[4] = molecular target: Sigma non-opioid intracellular receptor 1 (Homo sapiens, UniProt Q99720); test: DRUGMATRIX: Sigma1 radioligand binding (ligand: [3H] Haloperidol); format: cell membranes, Jurkat, Membrane; settings: jurkat; Not Active = under 50% inhibition at 10 µM
Sequence of Sigma non-opioid intracellular receptor 1 (Q99720 whole entry): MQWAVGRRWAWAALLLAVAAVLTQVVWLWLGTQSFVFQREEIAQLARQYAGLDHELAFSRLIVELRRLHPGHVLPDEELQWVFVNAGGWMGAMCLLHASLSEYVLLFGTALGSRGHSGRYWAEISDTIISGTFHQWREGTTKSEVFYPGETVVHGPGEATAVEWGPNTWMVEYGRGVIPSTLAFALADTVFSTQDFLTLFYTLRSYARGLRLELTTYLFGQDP

[5] = molecular target: T1, Muscarinic acetylcholine receptor M4 (Homo sapiens, UniProt P08173); format: cell membranes, CHO-K1, Membrane; settings: cho-k1; note: in other assays of this panel Not Active means under 50% inhibition at 10 µM
T1 sequence (P08173 whole entry): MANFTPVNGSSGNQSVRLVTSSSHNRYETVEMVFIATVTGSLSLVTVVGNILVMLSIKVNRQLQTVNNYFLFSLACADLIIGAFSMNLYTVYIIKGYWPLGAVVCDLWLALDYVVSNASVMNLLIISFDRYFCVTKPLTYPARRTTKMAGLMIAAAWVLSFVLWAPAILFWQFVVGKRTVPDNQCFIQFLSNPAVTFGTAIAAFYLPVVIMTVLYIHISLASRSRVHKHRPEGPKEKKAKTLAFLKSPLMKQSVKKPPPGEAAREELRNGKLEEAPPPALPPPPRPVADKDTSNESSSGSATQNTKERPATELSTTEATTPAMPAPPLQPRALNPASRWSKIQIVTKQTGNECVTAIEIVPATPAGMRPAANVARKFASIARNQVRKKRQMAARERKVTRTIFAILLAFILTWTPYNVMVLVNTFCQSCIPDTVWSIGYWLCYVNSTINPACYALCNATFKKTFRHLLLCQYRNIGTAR

Sequence of 5-hydroxytryptamine receptor 1B (P28564 whole entry): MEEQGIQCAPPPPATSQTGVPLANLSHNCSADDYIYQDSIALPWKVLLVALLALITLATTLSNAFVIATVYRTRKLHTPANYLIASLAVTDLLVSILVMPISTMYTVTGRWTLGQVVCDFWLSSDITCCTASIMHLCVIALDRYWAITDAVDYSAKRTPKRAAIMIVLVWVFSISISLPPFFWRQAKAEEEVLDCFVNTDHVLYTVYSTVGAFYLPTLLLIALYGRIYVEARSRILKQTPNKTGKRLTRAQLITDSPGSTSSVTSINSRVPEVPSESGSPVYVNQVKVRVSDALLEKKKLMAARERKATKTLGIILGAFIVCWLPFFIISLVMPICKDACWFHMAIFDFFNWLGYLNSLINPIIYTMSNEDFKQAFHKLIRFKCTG

NS(=O)(=O)c1cc2c(cc1Cl)NC(C(Cl)Cl)NS2(=O)=O (stereo not drawn) [TRICHLORMETHIAZIDE]
Not Active: IC50 [1] | IC50 [2] | IC50 (Vasopressin V1a receptor) | IC50 [3] | IC50 [4] | IC50 [5]

Cc1c(C)c2c(c(C)c1O)CCC(C)(COc1ccc(CC3SC(=O)NC3=O)cc1)O2 (stereo not drawn) [TROGLITAZONE]
Not Active: IC50 [1] | IC50 [2] | IC50 (Vasopressin V1a receptor) | IC50 [3] | IC50 [4] | IC50 [5]

N[C@@H]1[C@H]2CN(c3nc4c(cc3F)c(=O)c(C(=O)O)cn4-c3ccc(F)cc3F)C[C@@H]12 [TROVAFLOXACIN]
Not Active: IC50 [1] | IC50 [2] | IC50 (Vasopressin V1a receptor) | IC50 [3] | IC50 [4] | IC50 [5]

N#CC(C#N)=Cc1ccc(O)c(O)c1 [TYRPHOSTIN 23]
Not Active: IC50 [1] | IC50 [2] | IC50 (Vasopressin V1a receptor) | IC50 [3] | IC50 [4] | IC50 [5]

CC[C@]1(O)C[C@H]2CN(CCc3c([nH]c4ccccc34)[C@@](C(=O)OC)(c3cc4c(cc3OC)N(C=O)[C@H]3[C@@](O)(C(=O)OC)[C@H](OC(C)=O)[C@]5(CC)C=CCN6CC[C@]43[C@@H]65)C2)C1 [VINCRISTINE]
Not Active: IC50 [1] | IC50 [2] | IC50 (Vasopressin V1a receptor) | IC50 [3] | IC50 [4] | IC50 [5]

CCCOc1ccccc1-c1nc2nn[nH]c2c(=O)[nH]1 [ZAPRINAST]
Not Active: IC50 [1] | IC50 [2] | IC50 (Vasopressin V1a receptor) | IC50 [3] | IC50 [4] | IC50 [5]

SODIUM NITROPRUSSIDE
Not Active: IC50 [1] | Ki [1] | IC50 [2] | Ki [2] | IC50 (Vasopressin V1a receptor) | Ki (Vasopressin V1a receptor) | IC50 [3] | Ki [3] | IC50 [4] | Ki [4] | IC50 [5] | Ki [5]
